Consider 10 molecules from ChEMBL document CHEMBL2046274, “Pyrazolo[4,3-c][1,2]benzothiazines 5,5-dioxide: a promising new class of Staphylococcus aureus NorA efflux pump inhibitors” (J Med Chem, 2012).

The subject of data set [1] is Staphylococcus aureus. Nature of the data set: Antibacterial activity against wild type Staphylococcus aureus SA1199 expressing norA by microdilution method. The format is functional.
Data set [2] concerns the target T1, Quinolone resistance protein NorA (Staphylococcus aureus) (UniProt P0A0J7).
T1 sequence (whole entry): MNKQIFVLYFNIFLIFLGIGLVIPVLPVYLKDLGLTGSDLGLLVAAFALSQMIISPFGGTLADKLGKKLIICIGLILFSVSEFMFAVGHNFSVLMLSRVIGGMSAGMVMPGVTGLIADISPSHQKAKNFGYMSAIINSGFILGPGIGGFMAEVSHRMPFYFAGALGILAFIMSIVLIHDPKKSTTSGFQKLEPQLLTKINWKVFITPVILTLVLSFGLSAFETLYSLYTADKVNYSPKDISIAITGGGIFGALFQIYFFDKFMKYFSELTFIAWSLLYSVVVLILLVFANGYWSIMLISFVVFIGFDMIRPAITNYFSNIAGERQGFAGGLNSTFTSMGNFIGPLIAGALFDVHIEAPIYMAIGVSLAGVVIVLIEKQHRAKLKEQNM
Nature of the data set: Inhibition of norA-mediated EtBr efflux in Staphylococcus aureus SA1199B overexpressing norA and expressing A116E GrlA mutation at 50 uM by fluorometry.

In data set [3] the target is T1, Quinolone resistance protein NorA (Staphylococcus aureus). In words: Inhibition of norA in wild type Staphylococcus aureus SA1199 expressing assessed as potentiation of ciprofloxacin MIC by checkerboard assay.
Data set [4] deals with Staphylococcus aureus. In words: Antibacterial activity against Staphylococcus aureus SA1199B overexpressing norA and expressing A116E GrlA mutation by microdilution method. It counts as functional.
For data set [5], the target named is T1, Quinolone resistance protein NorA (Staphylococcus aureus). In words: Inhibition of norA overexpressed in Staphylococcus aureus SA1199B coexpressing A116E GrlA mutation assessed as fold reduction in ciprofloxacin MIC at >12.5 ug/mL by checkerboard assay.
In data set [6] the test system is Staphylococcus aureus. Nature of the data set: Antibacterial activity against norA-deficient Staphylococcus aureus SAK1902 by microdilution method. The format is functional.
The target in data set [7] is T1, Quinolone resistance protein NorA (Staphylococcus aureus). Nature of the data set: Inhibition of norA overexpressed in Staphylococcus aureus SA1199B coexpressing A116E GrlA mutation assessed as potentiation of ciprofloxacin MIC by checkerboard assay.
Data set [8] has as its target Quinolone resistance protein NorA (Staphylococcus aureus, UniProt P0A0J7, A116E). In words: Inhibition of norA-mediated EtBr efflux in Staphylococcus aureus SA1199B overexpressing norA and expressing A116E GrlA mutation by fluorometry.
Data set [9] concerns the target T1, Quinolone resistance protein NorA (Staphylococcus aureus). In words: Inhibition of norA in Staphylococcus aureus SA1199B overexpressing norA and expressing A116E GrlA mutation assessed as fold reduction in ciprofloxacin MIC at >6.25 ug/mL by checkerboard assay.
The nature of data set [10]: Cytotoxicity against human HepG2 cells after 24 hrs by LDH release assay. It counts as cell-based. (In general: LDH in the medium is a marker of cell lysis.)
Data set [11] deals with Staphylococcus aureus. In words: Antibacterial activity against Staphylococcus aureus SAK2378 overexpressing norA by microdilution method. The format is functional. Background: Dilution methods test growth across graded concentrations, often in twofold steps.
Data set [12] has as its system Staphylococcus aureus. In words: Potentiation of CPX MIC against norA-deficient Staphylococcus aureus SAK1902 by checkerboard assay. It counts as functional, organism-based.
In data set [13] the target is T1, Quinolone resistance protein NorA (Staphylococcus aureus). Nature of the data set: Inhibition of norA overexpressed in Staphylococcus aureus SAK2378 assessed as potentiation of CPX MIC by checkerboard assay.
For data set [14] the target is unchanged. In words: Inhibition of norA overexpressed in Staphylococcus aureus SA1199B coexpressing A116E GrlA mutation potentiation of EtBr MIC at >6.25 ug/mL by checkerboard assay.

As usually defined, the MIC is the lowest concentration found to suppress growth. Read a high MIC as a need for much substance. By inhibition is commonly meant the drop in the measured response relative to a control, in per cent. As usually defined, the IC50 is the concentration at which inhibition is half-maximal. The CC50 is the concentration that lowers cell viability or growth by half.

Structures are written as SMILES. ≈ marks a conversion by molar mass, not a printed value. Calls of active or inactive are those of the source. The calls are words filed in the database; no cut-off is given here.

`O=[N+]([O-])c1ccc(-n2nc(-c3ccc(Cl)cc3)c3c2-c2ccccc2S(=O)(=O)N3)cc1`: the MIC came to 50 µg/mL (≈ 110 µM) against Staphylococcus aureus [1], 50 µg/mL (≈ 110 µM) against Staphylococcus aureus [4], 25 µg/mL (≈ 55.2 µM) against Staphylococcus aureus [6] and 25 µg/mL (≈ 55.2 µM) against Staphylococcus aureus [11]. In [2], this molecule registered an inhibition of 76.9%. In data set [3], the inhibition result is “inactive”. Besides, the fold change (FC) in [5] was 16; in data set [9], 8. Moreover, the inhibition entry in data set [7] and in data set [13] was “Active” in each case. In data set [8], this molecule gave an IC50 of 10 µM. In data set [10], this molecule yielded a CC50 at 24 h greater than 100 µg/mL. For the same molecule, the outcome with Staphylococcus aureus [12] was Active.
Turning to `CN1c2c(-c3ccc(Cl)cc3)nn(-c3cccc(C(F)(F)F)c3)c2-c2ccccc2S1(=O)=O`, the inhibition in [2] is 0%.
On the same count and under the same terms, with `CS(=O)(=O)Nc1ccc(-n2nc(-c3ccc(Cl)cc3)c3c2-c2ccccc2S(=O)(=O)N3)cc1` the figure was 19.2%.
With `NS(=O)(=O)c1ccc(-n2nc(-c3ccc(Cl)cc3)c3c2-c2ccccc2S(=O)(=O)N3)cc1`, in data set [2], the inhibition is 29.8%.
Still for that read-out and setting: with `O=S1(=O)Nc2c(-c3ccc(Cl)cc3)nn(-c3ccc(F)cc3)c2-c2ccccc21` the figure was 15.5%; with `O=S1(=O)Nc2c(-c3ccc(Cl)cc3)nn(-c3cccc(F)c3)c2-c2ccccc21`, 33.9%.
Consider `Cc1ccc(-c2cc(C(F)(F)F)nn2-c2ccc(S(N)(=O)=O)cc2)cc1` [CELECOXIB], for which the minimal inhibitory concentration (MIC) with Staphylococcus aureus [1] and in the data set on Staphylococcus aureus [4] was greater than 100 µg/mL throughout. The molecule also showed an inhibition in data set [2] of 64.5%. The inhibition result in data set [3] and in data set [7] was “inactive” throughout. For the same molecule, the inhibition entry in data set [14] was “Active”. In data set [8], the IC50 is greater than 40 µM.
Take `O=C(O)c1cn(C2CC2)c2cc(N3CCNCC3)c(F)cc2c1=O` [CIPROFLOXACIN]: the MIC in the data set on Staphylococcus aureus [1] worked out at 0.63 µg/mL (≈ 1.9 µM); in the data set with Staphylococcus aureus [4], 10 µg/mL (≈ 30.2 µM); against Staphylococcus aureus [6], 0.31 µg/mL (≈ 0.936 µM); in the data set on Staphylococcus aureus [11] it was 2.5 µg/mL (≈ 7.54 µM).
For `Fc1ccc([C@@H]2CCNC[C@H]2COc2ccc3c(c2)OCO3)cc1` [PAROXETINE], the MIC was greater than 100 µg/mL with Staphylococcus aureus [1], greater than 100 µg/mL in the data set with Staphylococcus aureus [4], greater than 100 µg/mL in the data set with Staphylococcus aureus [6] and 100 µg/mL (≈ 304 µM) against Staphylococcus aureus [11]. Besides, the inhibition result in data set [3] is “inactive”. Besides, the inhibition entry in data set [7] is “Active”.
Consider `COC(=O)[C@H]1[C@H]2C[C@@H]3c4[nH]c5cc(OC)ccc5c4CCN3C[C@H]2C[C@@H](OC(=O)c2cc(OC)c(OC)c(OC)c2)[C@@H]1OC` [RESERPINE], for which the MIC with Staphylococcus aureus [1], against Staphylococcus aureus [4], in the data set on Staphylococcus aureus [6] and against Staphylococcus aureus [11] was greater than 100 µg/mL each time. For the same molecule, the inhibition entry in [3] was “inactive”. Also, the inhibition result in data set [7] is “Active”.
